Assays:
Type in all cases: in vivo
[1] = test system: barnyardgrass (Echinochloa crus-galli); assay: Test A preemergence soil spray, visual injury rating 0-100; conditions: 10 days
Procedure, shortened: (§1)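 Grow plants in loam soil blended with sand. Apply formulated compound (non-phytotoxic solvent, surfactant) as a directed soil spray before emergence, or to plants at the one- to two-leaf stage after emergence. Hold in greenhouse 10 days, then rate injury visually versus untreated controls on a 0-100 scale.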

[2] = test system: green foxtail (Setaria viridis); assay: as above; conditions: 10 days
Procedure, shortened: as §1

[3] = test system: oat, wild (wild oat, Avena fatua); assay: as above; conditions: 10 days
Procedure, shortened: as §1

[4] = test system: corn (Zea mays); assay: as above; conditions: 10 days
Procedure, shortened: as §1

[5] = test system: blackgrass (Alopecurus myosuroides); assay: as above; conditions: 10 days
Procedure, shortened: as §1

[6] = test system: wheat (Triticum aestivum); assay: as above; conditions: 10 days
Procedure, shortened: as §1

[7] = test system: palmer (palmer amaranth, palmer pigweed, Amaranthus palmeri); assay: as above; conditions: 10 days
Procedure, shortened: as §1

[8] = test system: soybean (Glycine max); assay: as above; conditions: 10 days
Procedure, shortened: as §1

[9] = test system: kochia (Bassia scoparia); assay: as above; conditions: 10 days
Procedure, shortened: as §1

[10] = test system: ragweed (common ragweed, Ambrosia artemisiifolia); assay: as above; conditions: 10 days
Procedure, shortened: as §1

[11] = test system: ryegrass, Italian (italian ryegrass, Lolium multiflorum); assay: as above; conditions: 10 days
Procedure, shortened: as §1

[12] = test system: rice (Oryza sativa); assay: Test B flooded paddy test, visual plant response rating 0-100; conditions: 250 g ai/ha, Flood, applied to paddy water, evaluated after 13 days
Procedure, shortened: (§2)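 Greenhouse, 13 d. Seedlings at 2-leaf stage, pots flooded to 3 cm, compound delivered into floodwater, water level held constant. Evaluated visually relative to controls.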

[13] = test system: ducksalad (Heteranthera limosa); assay: as above; conditions: 250 g ai/ha, Flood, applied to paddy water, evaluated after 13 days
Procedure, shortened: as §2

[14] = test system: barnyardgrass (Echinochloa crusgalli); assay: as above; conditions: 250 g ai/ha, Flood, applied to paddy water, evaluated after 13 days
Procedure, shortened: as §2

[15] = test system: sedge, umbrella (small-flower umbrella sedge, Cyperus difformis); assay: as above; conditions: 250 g ai/ha, Flood, applied to paddy water, evaluated after 13 days
Procedure, shortened: as §2

[16] = test system: barnyardgrass (Echinochloa crus-galli); assay: Test A postemergence application, visual injury rating 0-100
Procedure, shortened: as §1

[17] = test system: galium (catchweed bedstraw, Galium aparine); assay: as above
Procedure, shortened: as §1

[18] = test system: green foxtail (Setaria viridis); assay: as above
Procedure, shortened: as §1

[19] = test system: oat, wild (wild oat, Avena fatua); assay: as above
Procedure, shortened: as §1

[20] = test system: corn (Zea mays); assay: as above
Procedure, shortened: as §1

[21] = test system: horseweed (Erigeron canadensis); assay: as above
Procedure, shortened: as §1

[22] = test system: blackgrass (Alopecurus myosuroides); assay: as above
Procedure, shortened: as §1

[23] = test system: wheat (Triticum aestivum); assay: as above
Procedure, shortened: as §1

[24] = test system: palmer (palmer amaranth, palmer pigweed, Amaranthus palmeri); assay: as above
Procedure, shortened: as §1

[25] = test system: soybean (Glycine max); assay: as above
Procedure, shortened: as §1

[26] = test system: kochia (Bassia scoparia); assay: as above
Procedure, shortened: as §1

[27] = test system: ragweed (common ragweed, Ambrosia artemisiifolia); assay: as above
Procedure, shortened: as §1

[28] = test system: ryegrass, Italian (italian ryegrass, Lolium multiflorum); assay: as above
Procedure, shortened: as §1

[29] = 62 g ai/ha, 0 = no effect, 100 = complete control
[30] = 62 g ai/ha, postemergence, 10 days, 0 = no effect, 100 = complete control
[31] = Postemergence, 16 g ai/ha, greenhouse 10 days, 0 no effect, 100 complete control

## CC(C)COC(=O)C1=CCC(NC(=O)C2(C)CN(c3cc(F)cc(F)c3)C(=O)O2)C1 (stereo not shown) [Compound 97]
[1]; 16 g ai/ha, 0 to 100 scale
  Barnyardgrass plant response rating: 0
[1]; [29]
  Barnyardgrass plant response rating (0-100): 0
[2]; 16 g ai/ha, 0 to 100 scale
  Foxtail, Green plant response rating: 20
[2]; [29]
  Foxtail, Green plant response rating (0-100): 60
[3]; 16 g ai/ha, 0 to 100 scale
  Oat, Wild plant response rating: 0
[3]; [29]
  Oat, Wild plant response rating (0-100): 0
[4]; 16 g ai/ha, 0 to 100 scale
  Corn plant response rating: 0
[4]; [29]
  Corn plant response rating (0-100): 0
[5]; 16 g ai/ha, 0 to 100 scale
  Blackgrass plant response rating: 0
[5]; [29]
  Blackgrass plant response rating (0-100): 0
[6]; 16 g ai/ha, 0 to 100 scale
  Wheat plant response rating: 0
[6]; [29]
  Wheat plant response rating (0-100): 10
[7]; 16 g ai/ha, 0 to 100 scale
  Pigweed, Palmer plant response rating: 0
[7]; [29]
  Pigweed, Palmer plant response rating (0-100): 0
[8]; 16 g ai/ha, 0 to 100 scale
  Soybean plant response rating: 0
[8]; [29]
  Soybean plant response rating (0-100): 0
[9]; 16 g ai/ha, 0 to 100 scale
  Kochia plant response rating: 0
[9]; [29]
  Kochia plant response rating (0-100): 0
[10]; 16 g ai/ha, 0 to 100 scale
  Ragweed plant response rating: 0
[10]; [29]
  Ragweed plant response rating (0-100): 0
[11]; 16 g ai/ha, 0 to 100 scale
  Ryegrass, Italian plant response rating: 0
[11]; [29]
  Ryegrass, Italian plant response rating (0-100): 0
[12]
  Plant response rating, Rice (0 to 100 scale, 0 is no effect and 100 is complete control): 0
[13]
  Plant response rating, Ducksalad (0 to 100 scale, 0 is no effect and 100 is complete control): 0
[14]
  Plant response rating, Barnyardgrass (0 to 100 scale, 0 is no effect and 100 is complete control): 0
[15]
  Plant response rating, Sedge, Umbrella (0 to 100 scale, 0 is no effect and 100 is complete control): 0
[16]; [30]
  Barnyardgrass plant response rating (0-100): 20
[16]; [31]
  Barnyardgrass plant response rating (0 to 100 scale): 0
[17]; [30]
  Galium plant response rating (0-100): 60
[17]; [31]
  Galium plant response rating (0 to 100 scale): 20
[18]; [30]
  Foxtail, Green plant response rating (0-100): 0
[18]; [31]
  Foxtail, Green plant response rating (0 to 100 scale): 0
[19]; [30]
  Oat, Wild plant response rating (0-100): 0
[19]; [31]
  Oat, Wild plant response rating (0 to 100 scale): 0
[20]; [30]
  Corn plant response rating (0-100): 0
[20]; [31]
  Corn plant response rating (0 to 100 scale): 0
[21]; [30]
  Horseweed plant response rating (0-100): 0
[21]; [31]
  Horseweed plant response rating (0 to 100 scale): 0
[22]; [30]
  Blackgrass plant response rating (0-100): 0
[22]; [31]
  Blackgrass plant response rating (0 to 100 scale): 0
[23]; [30]
  Wheat plant response rating (0-100): 10
[23]; [31]
  Wheat plant response rating (0 to 100 scale): 0
[24]; [30]
  Pigweed, Palmer plant response rating (0-100): 10
[24]; [31]
  Pigweed, Palmer plant response rating (0 to 100 scale): 0
[25]; [30]
  Soybean plant response rating (0-100): 40
[25]; [31]
  Soybean plant response rating (0 to 100 scale): 0
[26]; [30]
  Kochia plant response rating (0-100): 70
[26]; [31]
  Kochia plant response rating (0 to 100 scale): 30
[27]; [30]
  Ragweed plant response rating (0-100): 20
[27]; [31]
  Ragweed plant response rating (0 to 100 scale): 0
[28]; [30]
  Ryegrass, Italian plant response rating (0-100): 0
[28]; [31]
  Ryegrass, Italian plant response rating (0 to 100 scale): 0
